{"source": "patent US20140243396A1", "about": "“METHOD OF TREATING MUCOEPIDERMOID CARCINOMA” (DANA-FARBER CANCER INSTITUTE, INC., priority 2011, published 2014)", "key": {"[1]": {"settings": "a few small 2003 studies; cited from earlier work"}, "[2]": {"settings": "in vivo; cited from earlier work"}, "H3118 cells [3]": {"tested_on": "H3118 cells", "test": "cAMP measurement, enzyme immunoassay", "type": "cell-based", "settings": "compared to DMSO control", "from_the_text": "(§1) FIG. 5 illustrates inhibition of PDE4B increased cellular cAMP levels and inhibited PI3-kinase signaling. […] Columns: mean, bars: SD (n=3). B. Knock-down of PDE4B increased MEC cell cAMP level. n=3. **p<0.01, compared to control cells. Columns: mean, bars: SD (n=3). C. […] The same blot was stripped and probed with AKT or β-actin antibody. Image was cropped and auto-leveled by Photoshop. A representative of three independent experiments.\n(§2) Cells were trypsinized and washed once with 1×PBS after treatment. The cell pellet was re-suspended in 100 μl of 0.1M HCL. cAMP amount was measure by Direct Cyclic AMP Enzyme Immunoassay Kit (#900-066, Assay Designs, Inc., Ann Arbor, Mich.) according to the manufacturer's protocol. The acetylated version of the kit was used."}, "HSY cells [4]": {"tested_on": "HSY cells", "test": "cAMP measurement, enzyme immunoassay", "type": "cell-based", "settings": "inhibitors", "from_the_text": "as §1, §2"}, "H292 cells [5]": {"tested_on": "H292 cells", "test": "Cell growth, cell count by trypan blue exclusion", "type": "cell-based", "settings": "PDE4B knock-down, day 5 post-transduction, compared to scramble control", "experimental": "(§3) FIG. 3 illustrates knock-down of PDE4B inhibits fusion positive MEC cell growth, causes cell cycle arrest and induces apoptosis. A. H3118 cell lysate was prepared on day 5 post-transduction and subjected to western blot analysis. Image was cropped and auto-leveled by Photoshop. A representative of three independent experiments. B. 1×10^5 MEC cells were infected twice by shRNA No. 1 and No. 2 and cell number was count on day 5 post-transduction by trypan blue exclusion. Columns: mean, bars: SD (n>3). *p<0.05, **p<0.01, compared with scramble control virus infected cell growth. C. 1×10^5 cells were infected twice by shRNA No. 2. Cell cycle was determined by PI staining followed by FACS analysis on day 5 post-transduction, n=3. D. 1×10^5 cells were infected twice by shRNA No. 2. Apoptosis assay was performed by PI and Annexin-V staining and analyzed by flow cytometry on day 5 post-transduction, Columns: mean, bars: SD (n=3). *p<0.05, compared with control cells.\n(§4) The Methods were described previously (Chen et al. Genes Cancer, 1:822-835 (2010)). Cell growth: 1-2×10^5 cells were infected with lenti-virus harboring specific shRNAs. On day 5 post infection, cells were counted by trypan blue exclusion. MTS proliferation assay (Promega, Madison, Wis.): 1-2×10^3 cells were treated with LY-294002, Compound A or DMSO in the concentration as indicated in FIG. 6A. MTS activities were measured on day 5. Cell cycle analysis: 1×10^5 cells were treated with inhibitors or infected with viruses. DNA amount was measured by flow cytometry analysis (BD FACScans). Apoptosis assay: 1×10^5 cells were treated with inhibitors or infected with virus. Cell viability was measured using the Annexin-V-FLUOS Staining Kit (Roche Diagnostics, Indianapolis, Ind.) by flow cytometry analysis (BD FACScans)."}, "H3118 cells [6]": {"tested_on": "H3118 cells", "test": "Cell growth, cell count by trypan blue exclusion", "type": "cell-based", "settings": "PDE4B knock-down, day 5 post-transduction, compared to scramble control", "experimental": "as §3, §4"}, "H3118 cells [7]": {"tested_on": "H3118 cells", "test": "In vivo murine xenograft model", "parameters": "species or system SCID hairless (SHO) mice", "from_the_text": "FIG. 4 illustrates knock-down of PDE4B inhibited MEC cell growth in vivo. A. Tumor volume in SCID hairless mice. Points: mean of 5 tumors, bars: SD (n=5). ***p<0.001, compared to control tumor. B. Representative picture of the tumors dissected from the mice after sacrifice on day 30. Five pair (shPDE4B vs. scramble control) of tumors was shown (n=5). C. Tumor weight from SCID hairless mice. Tumors were weighted on day 30 at sacrifice. Columns: mean, bars: SD (n=5). ***p<0.001, compared to control tumor weight. D. RT-qPCR analysis of PDE4B expression from the tumor biopsies. Columns: mean, bars: SD (n=3). ***p<0.001, compared to control tumor.\nMice were maintained and treated in accordance with institutional guidelines of Dana Farber Cancer Institute Animal Resource Facilities. H3118 cells were infected twice with shPDE4B-2 or scramble control virus. On day three post-transduction, 5×10^6 shPDE4B cells were injected subcutaneously (s.c.) into one flank of a SCID hairless (SHO) mice (Charles River Laboratories International, Inc., Wilmington, Mass.) and 5×10^6 control cells were injected into the opposite flank (Dubrovska et al., Proc Natl Acad Sci USA, 2009, 106: 268-273; Serra et al. Cancer Res, 2008, 68: 8022-8030). A total of five mice were used. The tumor volume was measured every two days starting from day 10, volume=(length×width2)×(π/6). Mice were sacrificed on day 30. The tumors were excised and the weight was measured."}, "HSY cells [8]": {"tested_on": "HSY cells", "test": "Cell growth, cell count by trypan blue exclusion", "type": "cell-based", "settings": "HSY cells, PDE4B knock-down", "experimental": "(§5) FIG. 2 illustrates inhibition of PDE4B by pharmacological inhibitor rolipram plus forskolin prevents cell growth, causes cell cycle arrest and induces apoptosis in fusion positive MEC cells. Rolipram (R), forskolin (FK), Rolipram plus forskolin (R+FK) or DMSO. Columns: mean, bars: SD (n>3), *p<0.05, **p<0.01, ***p<0.001, compared to HSY cell growth. B. 1×10^5 cells were treated with 50 μM R plus 20 μM FK or DMSO for 24 hours. C. 1×10^5 cells were treated with 50 μM rolipram plus 20 μM forskolin with or DMSO for 48 hours. Apoptosis assay was performed by PI and Annexin-V staining and analyzed by flow cytometry. Columns: mean, bars: SD (n=3). *p<0.05, compared with DMSO treated cells.\nas §3, §4"}, "H292 and H3118 cells": {"tested_on": "H292 and H3118 cells", "test": "Apoptosis assay, PI and Annexin-V staining", "type": "cell-based", "settings": "PDE4B knock-down, day 5 post-transduction", "experimental": "as §5\n(§6) FIG. 3 illustrates knock-down of PDE4B inhibits fusion positive MEC cell growth, causes cell cycle arrest and induces apoptosis. […] Cell cycle was determined by PI staining followed by FACS analysis on day 5 post-transduction, n=3. […] Apoptosis assay was performed by PI and Annexin-V staining and analyzed by flow cytometry on day 5 post-transduction, Columns: mean, bars: SD (n=3). *p<0.05, compared with control cells.\n(§7) The Methods were described previously (Chen et al. Genes Cancer, 1:822-835 (2010)). […] On day 5 post infection, cells were counted by trypan blue exclusion. […] MTS activities were measured on day 5. […] DNA amount was measured by flow cytometry analysis (BD FACScans). […]"}, "HSY cells [9]": {"tested_on": "HSY cells", "test": "Apoptosis assay, PI and Annexin-V staining", "type": "cell-based", "settings": "PDE4B knock-down, day 5 post-transduction", "experimental": "as §5, §6, §7"}, "H292 cells [10]": {"tested_on": "H292 cells", "test": "Cell cycle analysis by flow cytometry", "type": "cell-based", "settings": "PDE4B knock-down, day 5 post-transduction; scramble control 50%", "experimental": "as §5, §3\n(§8) The Methods were described previously (Chen et al. Genes Cancer, 1:822-835 (2010)). […] On day 5 post infection, cells were counted by trypan blue exclusion. […] MTS activities were measured on day 5. […] DNA amount was measured by flow cytometry analysis (BD FACScans). […] Cell viability was measured using the Annexin-V-FLUOS Staining Kit (Roche Diagnostics, Indianapolis, Ind.) by flow cytometry analysis (BD FACScans)."}, "H3118 cells [11]": {"tested_on": "H3118 cells", "test": "Cell cycle analysis by flow cytometry", "type": "cell-based", "settings": "PDE4B knock-down, day 5 post-transduction; scramble control 57%", "experimental": "as §5, §3, §8"}, "HSY cells [12]": {"tested_on": "HSY cells", "test": "Cell cycle analysis by flow cytometry", "type": "cell-based", "settings": "PDE4B knock-down", "experimental": "as §5, §3, §8"}}}
{"compound": "CCOc1ccc(/C=C2\\NCCc3cc(OCC)c(OCC)cc32)cc1OCC", "note": "[Drotaverine]", "values": [{"measurement": "effective in treating renal colic", "setting": "[1]", "result": "~80", "unit": "%"}, {"measurement": "adverse effects frequency", "setting": "[2]", "result": 0.9, "unit": "%"}]}
{"compound": "C=C[C@@]1(C)CC(=O)[C@]2(O)[C@@]3(C)[C@@H](O)CCC(C)(C)[C@@H]3[C@H](O)[C@H](OC(C)=O)[C@@]2(C)O1", "note": "[forskolin]", "values": [{"measurement": "increase of cAMP levels", "setting": "H3118 cells [3]", "result": 4, "unit": "fold"}, {"measurement": "effect on cAMP levels (in words)", "setting": "HSY cells [4]", "result": "no effect"}]}
{"compound": "shRNA #2: shRNA lenti-viral construct targeting PDE4B, SEQ ID NO 2 (CCGGGCGCAGAGAGTCATTTCTCTACTCGAGTAGAGAAATGACTCTCTGCGCTTTTTG)", "values": [{"measurement": "growth inhibition", "setting": "H292 cells [5]", "result": 74, "unit": "%"}, {"measurement": "growth inhibition", "setting": "H3118 cells [6]", "result": 83, "unit": "%"}, {"measurement": "tumor growth in vivo (in words)", "setting": "H3118 cells [7]; H3118 cells with PDE4B knock-down vs control cells, s.c., tumor volume every two days", "result": "significantly slower"}, {"measurement": "repression of PDE4B expression in tumor biopsies", "setting": "H3118 cells [7]; RT-qPCR, compared to controls", "result": 71, "unit": "%"}, {"measurement": "average tumor weight, less than controls", "setting": "H3118 cells [7]; day 30 at sacrifice", "result": 88, "unit": "%"}, {"measurement": "cell growth (in words)", "setting": "HSY cells [8]", "result": "slight growth reduction"}, {"measurement": "apoptosis (in words)", "setting": "H292 and H3118 cells", "result": "significant apoptosis"}, {"measurement": "apoptosis (in words)", "setting": "HSY cells [9]", "result": "no significant effect"}, {"measurement": "cells arrested at G0/G1 phase", "setting": "H292 cells [10]", "result": 78, "unit": "%"}, {"measurement": "cells arrested at G0/G1 phase", "setting": "H3118 cells [11]", "result": 79, "unit": "%"}, {"measurement": "cell cycle arrest (in words)", "setting": "HSY cells [12]", "result": "much less effect"}]}
